This is an account of results in US7417045B2, “Heterocyclic substituted pyridine or phenyl compounds with CXCR3 antagonist activity” (Schering Corporation, priority 2005, dated 2008).

Structures are written as SMILES. Bounds are passed on as bounds.

The IC50 is the point on the concentration scale where inhibition reaches its midpoint. A lower IC50 goes with higher potency.

For this assay, the target named is T1, human CXCR3 (N-delta 4) (Homo sapiens, UniProt P49682).
T1 construct: CD8 leader (N); Flag tag; expressed in transfected cells; membranes
T1 sequence (P49682 5-368 limits assumed): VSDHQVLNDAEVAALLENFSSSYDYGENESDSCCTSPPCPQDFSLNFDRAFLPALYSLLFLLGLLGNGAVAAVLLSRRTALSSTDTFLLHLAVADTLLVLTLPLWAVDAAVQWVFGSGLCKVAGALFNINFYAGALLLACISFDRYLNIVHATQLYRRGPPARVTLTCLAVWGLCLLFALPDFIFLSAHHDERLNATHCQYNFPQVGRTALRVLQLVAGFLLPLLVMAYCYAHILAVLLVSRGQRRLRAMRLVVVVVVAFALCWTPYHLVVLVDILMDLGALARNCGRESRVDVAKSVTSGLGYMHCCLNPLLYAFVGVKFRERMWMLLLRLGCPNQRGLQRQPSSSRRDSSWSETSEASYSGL
Kind of assay: Human CXCR3 (N-delta 4) Scintillation Proximity Assay (SPA), [125I] IP-10 binding. The note with it: IC50 rating; [125I] IP-10 displacement, Ba/F3-hCXCR3 (N-delta 4) membranes. The gist of the method:
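Membranes from Ba/F3 cells stably expressing Flag-tagged human CXCR3 (N-delta 4), 2 μg per point, precoupled 1 h to WGA SPA beads in HEPES buffer with CaCl2, MgCl2, NaCl, 1.0% BSA. Compounds titrated with 25 pM [125I] IP-10; bound label counted after 3 hr at room temperature.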
For orientation: SPA uses beads or plates that emit light when radiolabelled molecules are held near them.
`CC[C@H]1CN(c2ncc(-c3ncc[nH]3)cc2Cl)CCN1C1CCN(C(=O)c2ccc(C#N)nc2)CC1` [Compound 68] had an IC50 below 25 nM.

Take `CC[C@H]1CN(c2ncc(-c3ncc[nH]3)cc2Cl)CCN1C1CCN([C@H](C(=O)NC)c2ccc(Cl)cc2)CC1` [Compound 166]: the half-inhibitory concentration (IC50) was above 100 nM.

Take `CC[C@H]1CN(c2ncc(-c3ncon3)cc2Cl)CCN1C1CCN(Cc2ccc(Cl)cc2F)CC1` [Compound 144]: the IC50 was above 100 nM.

`CC[C@H]1CN(c2ncc(-c3cnc(N)s3)cc2Cl)CCN1C1CCN(C(=O)c2ccc(Cl)cc2)CC1` [Compound 167] came in with an IC50 above 100 nM.

The molecule `CC[C@H]1CN(c2ncc(-c3ncc[nH]3)cc2Cl)CCN1C1CCN(C(=O)c2ccc(C#CC(C)(C)NS(N)(=O)=O)cc2)CC1` [Compound 168] returned an IC50 above 100 nM.

As for `CC[C@H]1CN(c2ncc(-c3ncc[nH]3)cc2Cl)CCN1C1CCN(C(C)c2ccc(Cl)cc2)CC1` (some centres unmarked) [Compound 8], the IC50 was below 25 nM.

Consider `CC[C@H]1CN(c2ncc(-c3nccn3C(=O)c3ccc(Cl)cc3)cc2Cl)CCN1C1CCN(C(=O)c2ccc(Cl)cc2)CC1` [Compound 55], for which the IC50 is below 25 nM.

Consider `CC[C@H]1CN(c2ncc(-c3ncc[nH]3)cc2Cl)CCN1C1CCN(Cc2ccc(Cl)cc2C(N)=O)CC1` [Compound 9], for which the IC50 is below 25 nM.

`CC[C@H]1CN(c2ncc(-c3ncc[nH]3)cc2Cl)CCN1C1CCN(C(=O)c2ccc(-n3c(C)ccc3C)cc2)CC1` [Compound 136] displayed an IC50 above 100 nM.

For the molecule `CC[C@H]1CN(c2ncc(-c3ncc[nH]3)cc2Cl)CCN1C1CCN([C@H](C(N)=O)c2ccc(Cl)cc2)CC1` [Compound 89], the IC50 is below 25 nM.

`CC[C@H]1CN(c2ncc(C3=NCCN3)cc2Cl)CCN1C1CCN(C(C(=O)OC)c2ccc(Cl)cc2)CC1` (some centres unmarked) [Compound 63]: the IC50 is below 25 nM.

Regarding `CC[C@H]1CN(c2ncc(-c3ncc[nH]3)cc2Cl)CCN1C1CCN(Cc2ccc(Cl)cc2F)CC1` [Compound 4], the IC50 is below 25 nM.

In turn, `CCOC(CNC(=N)c1cc(Cl)ccc1CN1CCC(N2CCN(c3ncc(-c4ncc[nH]4)cc3Cl)C[C@@H]2CC)CC1)OCC` [Compound 21] gave an IC50 below 25 nM.

In the case of `CC[C@H]1CN(c2ncc(-c3ncc[nH]3)cc2Cl)CCN1C1CCN(Cc2ccc(Cl)cc2C#N)CC1` [Compound 33], the IC50 is below 25 nM.

Consider `CC[C@H]1CN(c2ncc(-c3ncc[nH]3)cc2Cl)CCN1[C@H]1CCN(Cc2ccc(Cl)cc2C(=O)NC)C[C@@H]1O` [Compound 172], for which the IC50 was above 100 nM.

With `CC[C@H]1CN(c2ncc(-c3cncn3C)cc2Cl)CCN1C1CCN(Cc2ccc(Cl)cc2)CC1` [Compound 115], the IC50 fell in the range of 25 to 100 nM.

On to `CC[C@H]1CN(c2ncc(-c3ncc[nH]3)cc2Cl)CCN1C1CCN(Cc2ccc(C#CC(C)(C)C)cc2)CC1` [Compound 25], for which the IC50 was below 25 nM.

`CC[C@H]1CN(c2ncc(-c3ncc[nH]3)cc2Cl)CCN1C1CCN(C(=O)c2ccc(-n3ccc(C(F)(F)F)n3)cc2)CC1` [Compound 157] came in with an IC50 above 100 nM.

Take `CC[C@H]1CN(c2ncc(-c3ncco3)cc2Cl)CCN1C1CCN(Cc2ccc(Cl)cc2F)CC1` [Compound 140]: the IC50 was above 100 nM.

Turning to `CC[C@H]1CN(c2ncc(-c3ncc[nH]3)cc2Cl)CCN1C1CCN(Cc2ccc(Cl)cc2C(C)(C)O)CC1` [Compound 31], the IC50 is below 25 nM.

`CC[C@H]1CN(c2ncc(-c3ncc[nH]3)cc2Cl)CCN1C1CCN(CC(=O)c2ccc(Cl)cc2)CC1` [Compound 164] yielded an IC50 above 100 nM.

Molecule `CC[C@H]1CN(c2ncc(-c3ncc[nH]3)cc2Cl)CCN1C1CCN([C@@H](C(=O)N(C)C)c2ccc(Cl)cc2)CC1` [Compound 97] had an IC50 below 25 nM.

Molecule `CC[C@H]1CN(c2ccc(-c3ncc[nH]3)cc2Br)CCN1C1CCN(Cc2ccc(Cl)cc2F)CC1` [Compound 20] registered an IC50 below 25 nM.

As to `CC[C@H]1CN(c2ncc(-c3ncc[nH]3)cc2Cl)CCN1C1CCN(Cc2ccc(C#CC(C)(C)N)cc2)CC1` [Compound 134], the IC50 was above 100 nM.

For the molecule `CC[C@H]1CN(c2ncc(-c3nnc(C)o3)cc2Cl)CCN1C1CCN(Cc2ccc(Cl)cc2F)CC1` [Compound 70], the IC50 was below 25 nM.

`CC[C@H]1CN(c2ncc(-c3nc(C(O)C(F)(F)F)c[nH]3)cc2Cl)CCN1C1CCN(Cc2ccc(Cl)cc2F)CC1` (some centres unmarked) [Compound 80] had a concentration for half-maximal inhibition (IC50) below 25 nM.

As for `CC[C@H]1CN(c2ncc(-c3ncc[nH]3)cc2Cl)CCN1C1CCN(C(=O)c2ccc(-c3cnco3)cc2)CC1` [Compound 117], the IC50 lay in the range of 25 to 100 nM.

Turning to `CC[C@H]1CN(c2ncc(-c3nnc(CO)o3)cc2Cl)CCN1C1CCN(C(C(=O)OC)c2ccc(Cl)cc2)CC1` (some centres unmarked) [Compound 124], the 50% inhibitory concentration (IC50) lay within 25 to 100 nM.

In turn, `CC[C@H]1CN(c2ncc(C3=NCCN3)cc2Cl)CCN1C1CCN(Cc2ccc(F)cc2)CC1` [Compound 11] gave an IC50 below 25 nM.

Molecule `CC[C@H]1CN(c2ncc(-c3ncc[nH]3)cc2Cl)CCN1C1CCN([C@H](C(=O)NCC2CC2)c2ccc(Cl)cc2)CC1` [Compound 159] had an IC50 above 100 nM.

`CC[C@H]1CN(c2ncc(-c3ncc[nH]3)cc2Cl)CCN1C1CCN(C(=O)c2ccc(N3CCCC3=O)cc2)CC1` [Compound 173]: the IC50 was above 100 nM.

`CC[C@H]1CN(c2ncc(-c3ncc[nH]3)cc2Cl)CCN1C1CCN([C@@H](CO)c2ccc(Cl)cc2)CC1` [Compound 10] returned an IC50 below 25 nM.

`CC[C@H]1CN(c2ncc(-c3ncc[nH]3)cc2Cl)CCN1C1CCN(C(=O)c2ccc(-n3cncn3)cc2)CC1` [Compound 135]: the IC50 was above 100 nM.

In turn, `CC[C@H]1CN(c2ncc(-c3ncc[nH]3)cc2Cl)CCN1C1CCN(Cc2ccc(C(=O)OC)cc2)CC1` [Compound 16] had an IC50 below 25 nM.

`CC[C@H]1CN(c2ncc(-c3ncc[nH]3)cc2Cl)CCN1C1CCN([C@H](C(=O)NC2CC2)c2ccc(Cl)cc2)CC1` [Compound 149] registered an IC50 above 100 nM.

Take `CC[C@H]1CN(c2ncc(-c3ncc[nH]3)cc2Cl)CCN1C1CCN(Cc2ccc(C#CC(C)(C)NS(=O)(=O)NC(=O)OC(C)(C)C)cc2)CC1` [Compound 143]: the IC50 was above 100 nM.

In the case of `CC[C@H]1CN(c2ncc(-c3ncc[nH]3)cc2Cl)CCN1C1CCN([C@@H](C(=O)OC)c2ccc(Cl)cc2)CC1` [Compound 35], the IC50 is below 25 nM.

As to `CC[C@H]1CN(c2ncc(-c3ncc[nH]3)cc2Cl)CCN1C1CCN([C@@H](C(=O)NCC2CC2)c2ccc(Cl)cc2)CC1` [Compound 107], the IC50 was in the range of 25 to 100 nM.
